The source of these data is patent US8481576B2 (Abbott GmbH & Co. KG, priority 2004, dated 2013).

Broadly, the Ki is the dissociation constant of the complex between target and ligand, obtained from inhibition or displacement.

SMILES strings stand for the structures. Structures can show the parent of a compound that is named as a salt.

The assay has as its target T1, h5-HT5A receptor (Homo sapiens, UniProt P47898).
T1 construct: expressed in transfected cells; host or cells: HEK293
The experiment in a line: [3H]5-CT binding assay h5-HT5A. The following applies: membranes from HEK293 cells expressing h5-HT5A, 2.5 nM [3H]5-CT; read-out: Binding affinity 5-HT5A (Ki). How it is done:
1. [^3H]5-CT binding assay h5-HT5A
Membranes from HEK293-cells, which permanently express the h5-HT5A receptor gene, were incubated in 100 mM Tris-HCl-buffer (pH 7.7), containing 1 mM EDTA in the presence of 2.5 nM [^3H]5-CT (600 μl total volume). The total binding is defined as the binding which is observed when the membranes are incubated alone in the presence of the radioligand. The inhibition induced by the compound is determined by incubation of cell membranes in the presence of the radioligand, and of different concentrations of the compound of interest. Unspecific binding is defined by the binding of [^3H]5-CT, which is obtained by incubation of the membranes as for the total binding but in the presence of 10 μM methiothepine. Following an incubation of 75 minutes at 30° C. the membrane suspension is filtered through GF/B-filters, wrapped in 0.03% PEI, wherein a Skatron® harvest system is used. The radioactivity retained in the filter is quantified by liquid scintillation counting.
In both assays, different concentrations of the test substances are used, and the Ki or the IC50 values are determined.

T1 sequence (P47898 whole entry): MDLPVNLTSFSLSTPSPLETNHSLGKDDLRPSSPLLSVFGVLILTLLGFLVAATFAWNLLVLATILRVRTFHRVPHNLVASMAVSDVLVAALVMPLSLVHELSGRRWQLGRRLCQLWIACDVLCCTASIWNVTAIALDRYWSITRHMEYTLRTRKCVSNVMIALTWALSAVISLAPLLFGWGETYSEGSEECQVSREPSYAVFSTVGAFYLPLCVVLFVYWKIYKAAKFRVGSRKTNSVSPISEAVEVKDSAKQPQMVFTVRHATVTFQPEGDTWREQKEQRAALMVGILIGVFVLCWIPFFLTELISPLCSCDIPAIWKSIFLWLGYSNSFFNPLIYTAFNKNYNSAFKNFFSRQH

`COc1cccc(OC)c1CNC(=N)Nc1nc2c(s1)Cc1ccccc1-2` [Example 80, N-(2,6-dimethoxybenzyl)-N′-8H-indeno[1,2-d][1,3]thiazole-2-ylguanidine hydrobromide]: the Ki was below 50 nM.

For the compound `COc1cccc(OC)c1CNC(=N)Nc1nc(-c2ccc(S(C)(=O)=O)cc2)cs1` [Example 82, N-(2,6-dimethoxybenzyl)-N′-{4-[4-(methylsulfonyl)phenyl]-1,3-thiazole-2-yl}guanidine hydrobromide], the Ki was 50 to 500 nM.

On to `COc1cccc(OC)c1CNC(=N)Nc1nc(-c2cc(-c3ccccc3)no2)cs1` [Example 83, N-(2,6-dimethoxybenzyl)-N′-[4-(3-phenylisoxazole-5-yl)-1,3-thiazole-2-yl]guanidine hydrobromide], for which the Ki was below 50 nM.

As for `COc1cccc(OC)c1CNC(=N)Nc1nc(-c2ccccc2C(F)(F)F)cs1` [Example 84, N-(2,6-dimethoxybenzyl)-N′-{4-[2-(trifluoromethyl)phenyl]-1,3-thiazole-2-yl}guanidine hydrobromide], the Ki is below 50 nM.

As to `COc1cccc(OC)c1CNC(=N)Nc1nc(C23CC4CC(CC(C4)C2)C3)cs1` [Example 85, N-[4-(1-adamantyl)-1,3-thiazole-2-yl]-N′-(2,6-dimethoxybenzyl)guanidine hydrobromide], the Ki was below 50 nM.

With `COc1cccc(F)c1CNC(=N)Nc1nc(C)cs1` [Example 86, N-(2-fluoro-6-methoxybenzyl)-N′-(4-methyl-1,3-thiazole-2-yl)guanidine], the Ki was below 50 nM.

Take `COc1cccc(OC)c1CNC(=N)Nc1nc(-c2ccc(F)c(F)c2)cs1` [Example 87, N-[4-(3,4-difluorophenyl)-1,3-thiazole-2-yl]-N′-(2,6-dimethoxybenzyl)guanidine hydrobromide]: the inhibition constant Ki was below 50 nM.

Regarding `COc1cccc(OC)c1CNC(=N)Nc1nc(-c2nc3ccccc3s2)cs1` [Example 88, N-[4-(1,3-benzothiazole-2-yl)-1,3-thiazole-2-yl]-N′-(2,6-dimethoxybenzyl)guanidine hydrobromide], the Ki was below 50 nM.

Take `COc1cccc(OC)c1CNC(=N)Nc1nc(-c2cccc(Cl)c2)cs1` [Example 89, N-[4-(3-chlorophenyl)-1,3-thiazole-2-yl]-N′-(2,6-dimethoxybenzyl)guanidine hydrobromide]: the Ki is below 50 nM.

For the compound `COc1cccc(OC)c1CNC(=N)Nc1nc(-c2cccs2)cs1` [Example 90, N-(2,6-dimethoxybenzyl)-N′-[4-(2-thienyl)-1,3-thiazole-2-yl]guanidine hydrobromide], the Ki is below 50 nM.

Regarding `COc1cccc(OC)c1CNC(=N)Nc1nc(-c2ccc(F)cc2F)cs1` [Example 91, N-[4-(2,4-difluorophenyl)-1,3-thiazole-2-yl]-N′-(2,6-dimethoxybenzyl)guanidine hydrobromide], the Ki was below 50 nM.

As to `COc1ccccc1CNC(=N)Nc1nc2ccccc2n1C` [Example 92, N-(2-methoxybenzyl)-N′-(1-methyl-1H-benzimidazole-2-yl)guanidine], the inhibitory constant (Ki) lay within 50 to 500 nM.

Take `COc1ccccc1CNC(=N)Nc1nc2ccccc2[nH]1` [Example 93, N-1H-benzimidazole-2-yl-N′-(2-methoxybenzyl)guanidine acetate]: the Ki was below 50 nM.

As to `COc1cccc(OC)c1CNC(=N)Nc1nc2c(s1)CCCC2` [Example 94, N-(2,6-dimethoxybenzyl)-N′-(4,5,6,7-tetrahydro-1,3-benzothiazole-2-yl)guanidine acetate], the Ki is below 50 nM.

With `COc1cccc(OC)c1CNC(=N)Nc1nc(-c2ccc(C(C)C)cc2)cs1` [Example 95, N-(2,6-dimethoxybenzyl)-N′-[4-(4-isopropylphenyl)-1,3-thiazole-2-yl]guanidine], the Ki fell in the range of 50 to 500 nM.

As for `COc1cccc(OC)c1CNC(=N)Nc1nc(-c2csc3ccccc23)cs1` [Example 96, N-[4-(1-benzothiene-3-yl)-1,3-thiazole-2-yl]-N′-(2,6-dimethoxybenzyl)guanidine hydrobromide], the Ki is below 50 nM.

With `COc1cccc(OC)c1CNC(=N)Nc1nc(C2CCCCC2)cs1` [Example 97, N-(4-cyclohexyl-1,3-thiazole-2-yl)-N′-(2,6-dimethoxybenzyl)guanidine], the Ki was below 50 nM.

On to `COc1ccccc1CNC(=N)Nc1nc(-c2ccccc2F)cs1` [Example 98, N-[4-(2-fluorophenyl)-1,3-thiazole-2-yl]-N′-(2-methoxybenzyl)guanidine], for which the Ki lay in the range of 50 to 500 nM.

As for `COc1ccccc1CNC(=N)Nc1nc(-c2cccc(F)c2)cs1` [Example 99, N-[4-(3-fluorophenyl)-1,3-thiazole-2-yl]-N′-(2-methoxybenzyl)guanidine], the Ki fell in the range of 50 to 500 nM.

As to `COc1ccccc1CNC(=N)Nc1nc(-c2ccc(OC(F)(F)F)cc2)cs1` [Example 100, N-(2-methoxybenzyl)-N′-{4-[4-(trifluoromethoxy)phenyl]-1,3-thiazole-2-yl}guanidine], the Ki is below 50 nM.

For `COc1ccccc1CNC(=N)Nc1nc(-c2ccc3c(c2)OCO3)cs1` [Example 101, N-[4-(1,3-benzodioxol-5-yl)-1,3-thiazole-2-yl]-N′-(2-methoxybenzyl)guanidine], the Ki is 50 to 500 nM.

In the case of `COc1cccc(OC)c1CNC(=N)Nc1nc(C)c(C(=O)N(C)C)s1` [Example 102, 2-{[[(2,6-dimethoxybenzyl)amino](imino)methyl]amino}-N,N,4-trimethyl-1,3-thiazole-5-carboxamide], the Ki is below 50 nM.

Turning to `COc1ccccc1CNC(=N)Nc1nc(-c2ccccc2C(F)(F)F)cs1` [Example 103, N-(2-methoxybenzyl)-N′-{4-[2-(trifluoromethyl)phenyl]-1,3-thiazole-2-yl}guanidine], the Ki lay in the range of 50 to 500 nM.

With `COc1ccccc1CNC(=N)Nc1nc(-c2ccc(NS(C)(=O)=O)cc2)cs1` [Example 104, N-{4-[2-({imino[(2-methoxybenzyl)amino]methyl}amino)-1,3-thiazole-4-yl]phenyl}methanesulfonamide], the Ki was above 500 nM.

As for `COc1cccc(OC)c1CNC(=N)Nc1nc(-c2ccccc2)ns1` [Example 105, N′-(2,6-dimethoxybenzyl)-N-(3-phenyl-1,2,4-thiadiazole-5-yl)guanidine×0.5 (2E)-But-2-endioate], the Ki is above 500 nM.

For `COc1ccccc1CN=C(N)Nc1nc(-c2ccccc2)ns1` [Example 106, N″-(2-methoxybenzyl)-N-(3-phenyl-1,2,4-thiadiazole-5-yl)guanidine (2E)-But-2-endioate], the Ki is above 500 nM.

Turning to `COc1cccc(OC)c1CNC(=N)Nc1nc(-c2ccc(C(F)(F)F)cc2)cs1` [Example 107, N-(2,6-dimethoxybenzyl)-N′-{4-[4-(trifluoromethyl)phenyl]-1,3-thiazole-2-yl}guanidine], the Ki fell in the range of 50 to 500 nM.

Consider `COc1cccc(OC)c1CNC(=N)Nc1nc(-c2cccc(C(F)(F)F)c2)cs1` [Example 108, N-(2,6-dimethoxybenzyl)-N′-{4-[3-(trifluoromethyl)phenyl]-1,3-thiazole-2-yl}guanidine], for which the Ki is above 500 nM.

With `COc1cccc(OC)c1CNC(=N)Nc1nc(-c2ccc(OC(F)F)cc2)cs1` [Example 109, N-{4-[4-(difluoromethoxy)phenyl]-1,3-thiazole-2-yl}-N′-(2,6-dimethoxybenzyl)guanidine hydrobromide], the Ki fell in the range of 50 to 500 nM.

For the compound `COc1cccc(OC)c1CNC(=N)Nc1nc(-c2ccc(N(C)C)cc2)cs1` [Example 110, N-(2,6-dimethoxybenzyl)-N′-{4-[4-(dimethylamino)phenyl]-1,3-thiazole-2-yl}guanidine hydrobromide], the Ki was below 50 nM.

For the compound `COc1cc(F)ccc1-c1csc(NC(=N)NCc2c(OC)cccc2OC)n1` [Example 111, N-(2,6-dimethoxybenzyl)-N′-[4-(4-fluoro-2-methoxyphenyl)-1,3-thiazole-2-yl]guanidine], the Ki is below 50 nM.

`COc1ccc(F)cc1-c1csc(NC(=N)NCc2c(OC)cccc2OC)n1` [Example 112, hydrobromide]: the Ki was below 50 nM.

On to `COc1cccc(OC)c1CNC(=N)Nc1nc(-c2c(OC)cccc2OC)cs1` [Example 113, N-(2,6-dimethoxybenzyl)-N′-[4-(2,6-dimethoxyphenyl)-1,3-thiazole-2-yl]guanidine], for which the Ki is below 50 nM.

Consider `COc1cccc(OC)c1CNC(=N)Nc1nc(-c2ccc(F)c3ccccc23)cs1` [Example 114, N-(2,6-dimethoxybenzyl)-N′-[4-(4-fluoro-1-naphthyl)-1,3-thiazole-2-yl]guanidine], for which the Ki was below 50 nM.

For the compound `COc1cccc(OC)c1CNC(=N)Nc1nc(-c2ccc3c(c2)CCO3)cs1` [Example 115, N-[4-(2,3-dihydro-1-benzofuran-5-yl)-1,3-thiazole-2-yl]-N′-(2,6-dimethoxybenzyl)guanidine], the Ki was below 50 nM.

Consider `COc1cccc(OC)c1CNC(=N)Nc1nc(-c2ccc(F)cc2Cl)cs1` [Example 116, N-[4-(2-chloro-4-fluorophenyl)-1,3-thiazole-2-yl]-N′-(2,6-dimethoxybenzyl)guanidine], for which the Ki was below 50 nM.

As for `COc1cccc(OC)c1CNC(=N)Nc1nc(-c2ccco2)cs1` [Example 117, N-(2,6-dimethoxybenzyl)-N′-[4-(2-furyl)-1,3-thiazole-2-yl]guanidine hydrobromide], the Ki is below 50 nM.
